Measured values taken from patent publication US5521173A, “Tricyclic benzazepine vasopressin antagonists” (American Home Products Corporation, priority 1995, dated 1996).

What was measured:
Vasopressin V2 = Vasopressin V2 Antagonist Activity in Conscious Hydrated Rats; format: in vivo, rat; details: 10 mg/kg orally, AVP 0.4 μg/kg i.p.; for Osmolality: urine
Protocol: Two to four rats are used for each compound. One hour later, arginine vasopressin (AVP, antidiuretic hormore, ADH) dissolved in peanut oil is administered at 0.4 μg/kg intraperitoneally. Two rats in each test would not receive arginine vasopressin but only the vehicle (peanut oil) to serve as water-loading control. Twenty minutes later each rat is given 30 mL/kg of deionized water orally by gavage and is placed individually in a metabolic cage equipped with a funnel and a graduated glass cylinder to collect urine for four hours. Urine volume is measured and osmolality analyzed by use of a Fiske One-Ten osmometer (Fiske Assoc., Norwood, Mass., USA). Urinary sodium, potassium, and chloride are analyzed by use of ion-specific electrodes in a Beckman E3 (Electrolyte 3) Analyzer. In the following results, […] and decreased osmolality relative to AVP-control indicates activity.

oxytocin receptors = target: T1, oxytocin receptors (Rattus norvegicus, UniProt P70536); test: Oxytocin Receptor Binding; design: species or system rat (female Sprague-Dawley); details: for IC50: 1.0 nM [3H]OT
T1 construct: The uteri are dissected out, cleaned of fat and connective tissues; from tissue; host or cells: uteri of DES-treated female Sprague-Dawley rats
T1 sequence (P70536 1-388): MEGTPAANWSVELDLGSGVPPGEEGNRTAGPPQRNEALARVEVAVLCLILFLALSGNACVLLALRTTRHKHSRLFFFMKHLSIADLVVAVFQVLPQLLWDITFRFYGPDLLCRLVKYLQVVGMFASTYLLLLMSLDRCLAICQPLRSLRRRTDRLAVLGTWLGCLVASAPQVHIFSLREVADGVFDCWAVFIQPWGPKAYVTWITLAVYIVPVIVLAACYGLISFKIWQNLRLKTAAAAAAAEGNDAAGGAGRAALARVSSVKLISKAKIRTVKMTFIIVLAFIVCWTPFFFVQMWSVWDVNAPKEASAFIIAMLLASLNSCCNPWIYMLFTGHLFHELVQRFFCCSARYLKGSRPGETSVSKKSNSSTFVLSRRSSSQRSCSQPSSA
Protocol: Oxytocin Receptor Binding
Female Sprague-Dawley rats weighing approximately 200-250 g are injected intramuscularly (i.m.) with 0.3 mg/kg of body weight of diethylstilbestrol (DES). The rats are sacrificed 18 hours later under pentobarbital anesthesia. The uteri are dissected out, cleaned of fat and connective tissues and rinsed in 50 ml of normal saline. The tissue pooled from six rats is homogenized in 50 ml of […] Tris.HCl, containing 0.5 mM dithiothreitol and 1.0 mM EDTA, adjusted to pH 7.4, using a polytron at setting 6 with three passes of 10 sec each. The homogenate is passed through two (2) layers of cheesecloth and the filtrate centrifuged at 1000× g for 10 min. The clear supernatant is removed and recentrifuged at 165,000× g for 30 min. The resulting pellet containing the oxytocin receptors is resuspended in 50.0 mM Tris.HCl containing 5.0 mM MgCl2 at pH 7.4, to give a protein concentration of 2.5 mg/ml of tissue suspension. This preparation is used in subsequent binding assays with [^3 H]Oxytocin.
Binding of 3,5-[^3 H]Oxytocin ([^3 H]OT) to its receptors is done in microtiter plates using [^3 H]OT, at various concentrations, in an assay buffer of 50.0 mM Tris.HCl, pH 7.4 and containing 5.0 mM MgCl2, and a mixture of protease inhibitors: BSA, 0.1 mg; aprotinin, 1.0 mg; 1,10-phenanthroline, 2.0 mg; […], 10.0 mg; and PMSF, 0.3 mg per 100 ml of buffer solution. Non-specific binding is determined in the presence of 1.0 uM unlabeled OT. The binding reaction is terminated after 60 min., at 22° C., by rapid filtration through glass fiber filters using a Brandel, cell harvester (Biomedical Research and Development Laboratories,Inc., Gaithersburg, Md.). Competition experiments are conducted at equilibrium using 1.0 nM [^3 H]OT and varying the concentration of the displacing agents. The concentrations of agent displacing 50% of [^3 H]OT at its sites (IC50) are calculated by a computer assisted LUNDON-2 program (LUNDON SOFTWARE INC., Ohio, USA).

[1] = target: T2, Vasopressin V1 receptor subtype in Human Platelet Membranes (Homo sapiens, UniProt P37288); test: Binding to Vasopressin V1 receptor subtype in Human Platelet Membranes
T2 construct: tissue Hudson Valley Blood Services, Westchester Medical Center, Valhalla, N.Y; host or cells: human platelets (frozen platelet rich plasma)
Protocol: Radioligand Binding Experiments with Human Platelet Membranes
(a) Platelet Membrane Preparation
Frozen platelet rich plasma (PRP), (Platelet Source: Hudson Valley Blood Services, Westchester Medical Center, Valhalla, N.Y.) are thawed to room temperature. The tubes containing the PRP are centrifuged at 16,000×g for 10 min. at 4° C. and the supernatant fluid discarded. The platelets resuspended in an equal volume of 50.0 mM Tris.HCl, pH 7.5 containing 120 mM NaCl and 20.0 mM EDTA. The suspension is recentrifuged at 16,000× g for 10 min. This washing step is repeated one more time. The wash discarded and the lysed pellets homogenized in low ionic strength buffer of Tris.HCl, 5.0 mM, pH 7.5 containing 5.0 mM EDTA. The homogenate is centrifuged at 39,000× g for 10 min. The resulting pellet is resuspended in Tris.HCl buffer, 70.0 mM, pH 7.5 and recentrifuged at 39,000× g for 10 min. The final pellet is resuspended in 50.0 mM Tris.HCl buffer pH 7.4 containing 120 mM NaCl and 5.0 mM KCl to give 1.0-2.0 mg protein per ml of suspension.
(b) Binding to Vasopressin V1 receptor subtype in Human Platelet Membranes
In wells of a 96 well format microtiter plate, add 100 μl of 50.0 mM Tris.HCl buffer containing 0.2% BSA and a mixture of protease inhibitors (aprotinin, leupeptin etc.). Then add 20 μl of [^3 H]Ligand (Manning or Arg^8 Vasopressin), to give final concentrations ranging from 0.01 to 10.0 nM. Initiate the binding by adding 80.0 μl of platelet suspension (approx. 100 μg protein). Mix all reagents by pipetting the mixture up and down a few times. Non specific binding is measured in the presence of 1.0 µM of unlabeled ligand (Manning or Arg^8 Vasopressin). Let the mixture stand undisturbed at room temperature for ninety (90) min. Upon this time, rapidly filter off the incubate under vacuum suction over GF/B filters, using a Brandel Harvester. Determine the radioactivity caught on the filter disks by the addition of liquid scintillant and counting in a liquid scintillator.

Vasopressin V1 = Vasopressin V1 Antagonist Activity in Conscious Rats (vasopressin vasopressor response); format: in vivo, rat; details: for Max % Inhibition: vasopressin vasopressor response
Protocol: Vasopressin V1 Antagonist Activity in Conscious Rats Conscious rats are restrained in a supine position with elastic tape. The area at the base of the tail is locally anesthetized by subcutaneous in filtration with 2% procaine (0.2 ml). Using aseptic technique the ventral caudal tail artery is isolated and a cannula made of PE 10 and 20 (heat-fused) tubing is passed into the lower abdominal aorta. The cannula is secured, heparinized (1000 i.u./cc), sealed and the wound closed with one or two stitches of Dexon 4-0. The caudal vein is also cannulated in the same manner for intravenous drug administration. The duration of the surgery is approximately 5 minutes. Additional local anesthesia (2% procaine or lidocaine) is provided as needed. The animals are placed in plastic restraining cages in an upright position. The cannula is attached to a Statham P23Db pressure transducer and pulsatile blood pressure is recorded. […] Percentage of antagonism by the compound is calculated using the pre-drug vasopressin vasopressor response as 100%. The results of this test on representative compounds of this invention in which the dose, the maximum % inhibition and the time in minutes, are shown in Table III.

T2 sequence (P37288 whole entry): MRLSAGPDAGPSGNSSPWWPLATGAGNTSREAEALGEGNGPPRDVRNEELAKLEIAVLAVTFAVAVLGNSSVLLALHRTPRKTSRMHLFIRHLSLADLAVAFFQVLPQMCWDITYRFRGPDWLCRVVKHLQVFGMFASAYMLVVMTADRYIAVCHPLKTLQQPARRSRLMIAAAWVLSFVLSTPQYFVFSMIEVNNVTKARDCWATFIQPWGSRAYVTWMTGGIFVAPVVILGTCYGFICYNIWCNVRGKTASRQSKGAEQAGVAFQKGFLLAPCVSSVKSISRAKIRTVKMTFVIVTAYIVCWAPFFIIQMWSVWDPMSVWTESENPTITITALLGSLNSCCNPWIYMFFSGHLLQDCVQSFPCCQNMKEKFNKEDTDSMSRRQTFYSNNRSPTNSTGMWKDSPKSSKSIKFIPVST

inhibition at 10 µM (oxytocin receptors) [%]	IC50 [1] [µM]	IC50 (oxytocin receptors) [µM]	Structure (SMILES)	Urine Volume (Vasopressin V2) [ml/4 hrs]	Osmolality (Vasopressin V2) [mOsm/kg]	Time (of maximum % inhibition) (Vasopressin V1; 30 mg/kg iv) [min]	Max % Inhibition (Vasopressin V1; 30 mg/kg iv) [%]	Time (of maximum % inhibition) (Vasopressin V1; 30 mg/kg po) [min]	Max % Inhibition (Vasopressin V1; 30 mg/kg po) [%]	Time (of maximum % inhibition) (Vasopressin V1; 10 mg/kg iv) [min]	Max % Inhibition (Vasopressin V1; 10 mg/kg iv) [%]
69			O=C(c1ccc(S(=O)(=O)c2ccccc2)cc1)N1Cc2cccn2Cc2ccccc21 [Example 12]	5.8	1254						
			O=C(c1ccc(-c2cccs2)cc1)N1Cc2cccn2Cc2ccccc21 [Example 1, 10,11-Dihydro-10-[4-(2-thienyl)benzoyl]-5H-pyrrolo[2,1-c][1,4]benzodiazepine]	5	1148			120	53		
92		1.09	O=C(c1ccc(-c2ccccc2)cc1)N1Cc2cccn2-c2ccccc21 [Example 17, 5-([1,1'-Biphenyl]-4-ylcarbonyl)-4,5-dihydropyrrolo[1,2-a]quinoxaline]	10.3	929	60	63				
100	0.013	0.11	CN(C)Cc1ccc2n1Cc1ccccc1N(C(=O)c1ccc(-c3ccccc3)cc1)C2 [Example 20, 10-([1,1'-Biphenyl]-4-ylcarbonyl)-10,11-dihydro-N,N-dimethyl-5H-pyrrolo[2,1-c][1,4]benzodiazepine-3-methanamine]	3.5	1650					240	61
62			O=C(c1ccc(C#Cc2ccccc2)cc1)N1Cc2cccn2Cc2ccccc21 [Example 4, 10,11-Dihydro-10-[4-(phenylethynyl)-5H-pyrrolo[2,1-c]1,4]benzodiazepine]	6.3	1033	90	30				
98		2.1	O=C(c1ccc(Sc2ccccc2)cc1)N1Cc2cccn2Cc2ccccc21 [Example 15, 10,11-Dihydro-10-[4-(phenylthio)benzoyl]-5H-pyrrolo[2,1-c][1,4] benzodiazepine]	4	1278						
77		2.5	O=C(c1ccc(-c2nccs2)cc1)N1Cc2cccn2Cc2ccccc21 [Example 10, 10,11-Dihydro-10-[4-(2-thiazolyl)benzoyl]-5H-pyrrolo[2,1-c][1,4]benzodiazepine]								
86		1.8	Cc1ccc(Sc2ccc(C(=O)N3Cc4cccn4Cc4ccccc43)cc2)cc1 [Example 11]	11	825	300	54				
67			C=CCOc1ccc(-c2ccc(C(=O)N3Cc4cccn4Cc4ccccc43)cc2)cc1 [Example 14, 10,11-Dihydro-10-[[4'-(2-propenyloxy)[1,1'-biphenyl]-4-yl]carbonyl]-5H-pyrrolo[2,1-c][1,4]benzodiazepine]	4	1247	90	50				
67	0.021		Cc1ccc(S(=O)(=O)c2ccc(C(=O)N3Cc4cccn4Cc4ccccc43)cc2)cc1 [Example 13, 10,11-Dihydro-10-[4-[(4-methylphenyl)sulfonyl]benzoyl]-5H-pyrrolo[2,1-c][1,4]benzodiazepine]	5.5	1380						
100		0.11	O=C(c1ccccc1)c1ccc(C(=O)N2Cc3cccn3Cc3ccccc32)cc1 [Example 16, 10-(4-Benzoylbenzoyl)-10,11-dihydro-5H-pyrrolo[2,1-c][1,4]benzodiazepine]	6	1022					240	67

Structure (SMILES)	inhibition at 10 µM (oxytocin receptors) [%]	IC50 [1] [µM]	IC50 (oxytocin receptors) [µM]	Urine Volume (Vasopressin V2) [ml/4 hrs]	Osmolality (Vasopressin V2) [mOsm/kg]	Time (of maximum % inhibition) (Vasopressin V1; 30 mg/kg iv) [min]	Max % Inhibition (Vasopressin V1; 30 mg/kg iv) [%]	Time (of maximum % inhibition) (Vasopressin V1; 30 mg/kg po) [min]	Max % Inhibition (Vasopressin V1; 30 mg/kg po) [%]	Time (of maximum % inhibition) (Vasopressin V1; 10 mg/kg iv) [min]	Max % Inhibition (Vasopressin V1; 10 mg/kg iv) [%]
Cc1ccc(Oc2ccc(C(=O)N3Cc4cccn4Cc4ccccc43)cc2)cc1 [Example 18, 10,11-Dihydro-10-[4-(4-methylphenoxy)benzoyl]-5H-pyrrolo[2,1-c][1,4]benzodiazepine]	99	0.28	0.12	5.3	919	300	36				
